The values that follow come from patent publication US20250099535A1, “GEPOTIDACIN AND VANCOMYCIN FOR USE IN THE TREATMENT OF AN INFECTION CAUSED BY STAPHYLOCOCCUS SAPROPHYTICUS” (GlaxoSmithKline Intellectual Property Development Limited, priority 2022, published 2025).

In brackets after ≈: the same amount, converted by molar mass. Where two headings read alike, the source gives them in different places.

What all share (format): cell-based
One assay relates to Enterococcus faecalis. The assay can be described thus: Baseline broth microdilution MIC (CLSI M07). The note with it: for MIC: Enterococcus faecalis. The procedure:
(§1) MIC values were determined in triplicate by Clinical and Laboratory Standards Institute (CLSI) […] (2018) reference broth microdilution (BMD) using cation adjusted Mueller Hinton broth (CAMHB) to determine a consensus median baseline MIC value for each isolate and compound. As required by CLSI M100 (2021), quality control (QC) strains Escherichia coli ATCC 25922, Pseudomonas aeruginosa ATCC 27853, Staphylococcus aureus 29213, and Enterococcus faecalis ATCC 29212 were tested concomitantly with the clinical isolates. (QC data not shown).

Assay [1] relates to Staphylococcus saprophyticus. The assay can be described thus: Baseline broth microdilution MIC (CLSI M07). As to the method:
as §1
Background: Dilution methods test growth across graded concentrations, often in twofold steps.

In assay [2] the test system is Staphylococcus saprophyticus. Kind of assay: Time-kill kinetic assay. As to conditions: 1× MIC, 5 S. saprophyticus isolates. As to the method:
CAMHB was used for the follow-up time-kill kinetic studies. Each organism was tested in media containing either compound alone, or both, at ½×, ¼×, and 1× their respective MICs. Time-kill concentration tubes were sampled at time 0 hours (T0), T2, T4, T8, and T24. Samples were serially diluted ten-fold up to 8 times in tubes with […] of a 0.85% saline solution. A volume of 0.1 mL was then plated onto tryptic-soy agar with 5% sheep blood from the original sample and subsequent dilutions. Plates were incubated for 24 hours at 35° C. before quantifying the viable cell count for each tube at the specified times (T0-T24).
As described in the CLSI M26-A manual, bactericidal activity was defined as a 3-log10 decrease in CFU/mL below the starting inoculum that was maintained for 24 hours. […] The number of surviving organisms in the presence of the combination was required to be ≥2 log10 CFU/mL below the starting inocula and at least one of the drugs should not affect the growth curve of the tested organism.

A word on the MIC: it is the lowest concentration that inhibits growth of the organism. Consider `CN[C@H](CC(C)C)C(=O)N[C@H]1C(=O)N[C@@H](CC(N)=O)C(=O)N[C@H]2C(=O)N[C@H]3C(=O)N[C@H](C(=O)N[C@H](C(=O)O)c4cc(O)cc(O)c4-c4cc3ccc4O)[C@H](O)c3ccc(c(Cl)c3)Oc3cc2cc(c3O[C@@H]2O[C@H](CO)[C@@H](O)[C@H](O)[C@H]2O[C@H]2C[C@](C)(N)[C@H](O)[C@H](C)O2)Oc2ccc(cc2Cl)[C@H]1O` [vancomycin], for which the MIC in the assay with Enterococcus faecalis (read-out: VANC MIC) was 1 µg/mL (≈ 0.69 µM); in assay [1] (read-out: VANC MIC, isolate S. saprophyticus 1106006, CAMHB), 0.5 µg/mL (≈ 0.345 µM); in assay [1] (read-out: VANC MIC, isolate S. saprophyticus 1113726, CAMHB) it was 1 µg/mL (≈ 0.69 µM); in assay [1] (read-out: VANC MIC, isolate S. saprophyticus 1115244, CAMHB) it was 1 µg/mL (≈ 0.69 µM); in assay [1] (read-out: VANC MIC, isolate S. saprophyticus 1125669, CAMHB), 1 µg/mL (≈ 0.69 µM); in assay [1] (read-out: VANC MIC, isolate S. saprophyticus 1129086, CAMHB) it was 0.5 µg/mL (≈ 0.345 µM). Also, the “VANC MIC” value in the assay with Enterococcus faecalis (isolate E. faecalis 1103597, CAMHB) was found to be 1 µg/mL; in the assay on Enterococcus faecalis (isolate E. faecalis 1103850, CAMHB) it was 1 µg/mL; in the assay on Enterococcus faecalis (isolate E. faecalis 1111210, CAMHB), 1 µg/mL; in the assay on Enterococcus faecalis (isolate E. faecalis 1124756, CAMHB), 1 µg/mL. For the same compound, the “Bactericidal activity (3-log10 decrease in CFU/mL below the starting inoculum maintained for 24 hours)” value in assay [2] was “not achieved”.
For `O=c1ccc2ncc(=O)n3c2n1C[C@H]3CN1CCC(NCc2cc3c(cn2)OCCC3)CC1` [gepotidacin, (2R)-2-({4-[(3,4-dihydro-2H-pyrano[2,3-c]pyridin-6-ylmethyl)amino]-1-piperidinyl}methyl)-1,2-dihydro-3H,8H-2a,5,8a-triazaacenaphthylene-3,8-dione], the MIC with Enterococcus faecalis (isolate E. faecalis 1097863, CAMHB, read-out: GEP MIC) worked out at 1 µg/mL (≈ 2.23 µM); with Enterococcus faecalis (isolate E. faecalis 1103597, CAMHB, read-out: GEP MIC) it was 0.5 µg/mL (≈ 1.11 µM); in the assay on Enterococcus faecalis (isolate E. faecalis 1103850, CAMHB, read-out: GEP MIC), 0.5 µg/mL (≈ 1.11 µM); in the assay with Enterococcus faecalis (isolate E. faecalis 1111210, CAMHB, read-out: GEP MIC) it was 1 µg/mL (≈ 2.23 µM); in the assay with Enterococcus faecalis (isolate E. faecalis 1124756, CAMHB, read-out: GEP MIC) it was 0.5 µg/mL (≈ 1.11 µM); in assay [1] (isolate S. saprophyticus 1106006, CAMHB, read-out: GEP MIC), 0.25 µg/mL (≈ 0.557 µM). The MIC in assay [1] (isolate S. saprophyticus 1113726, CAMHB, read-out: GEP MIC) stood at 0.12 µg/mL (≈ 0.268 µM); in assay [1] (isolate S. saprophyticus 1115244, CAMHB, read-out: GEP MIC), 0.12 µg/mL (≈ 0.268 µM); in assay [1] (isolate S. saprophyticus 1125669, CAMHB, read-out: GEP MIC) it was 0.25 µg/mL (≈ 0.557 µM); in assay [1] (isolate S. saprophyticus 1129086, CAMHB, read-out: GEP MIC) it was 0.25 µg/mL (≈ 0.557 µM). Further, the “Bactericidal activity (3-log10 decrease in CFU/mL below the starting inoculum maintained for 24 hours)” value in assay [2] is “not achieved”.
